Reference: ChEMBL document CHEMBL5154845, “Dual-acting antitumor agents targeting the A2A adenosine receptor and histone deacetylases: Design and synthesis of 4-(furan-2-yl)-1H-pyrazolo[3,4-d]pyrimidin-6-amine derivatives” (Eur J Med Chem, 2022)
pIC50, pKi: −log10 of the molar value. Calls of active or inactive are those of the source. The rule behind the calls is not given here.

Columns and labels:
[1] = Half-life in male ICR mouse at 20 mg/kg, ip measured up to 24 hrs by LC-MS/MS analysis; format: ADME, organism-based; conditions: in vivo
[2] = test system: MC-38; test: Antitumor activity against mouse MC38 cells xenografted in C57 mouse assessed as tumor growth inhibition at 30 mg/kg, ip administered twice a day; format: functional; conditions: read-out: TGI
[3] = Mean residence time in male ICR mouse at 5 mg/kg, iv measured up to 24 hrs by LC-MS/MS analysis; format: ADME, organism-based; conditions: in vivo
[4] = test system: MC38; test: Inhibition of HDAC in mouse MC38 cells assessed as increase in H4 acetylation at 0.1 to 5 uM measured by western blot analysis; format: cell-based; conditions: dose 0.1-5 µM
[5] = test system: MC-38; test: Antitumor activity against mouse MC38 cells xenografted in C57 mouse assessed as tumor growth inhibition at 90 mg/kg, po administered twice a day; format: functional; conditions: read-out: TGI
[6] = test system: MC-38; test: Antiproliferative activity against mouse MC38 cells after 72 hrs by CCK-8 assay; format: functional
[7] = AUC (0 to t) in male ICR mouse at 5 mg/kg, iv measured up to 24 hrs by LC-MS/MS analysis; format: ADME, organism-based; design: time < 24 hrs, dose 5 mg/kg, route iv; conditions: in vivo
[8] = Tmax in male ICR mouse at 20 mg/kg, po measured up to 24 hrs by LC-MS/MS analysis; format: ADME, organism-based; conditions: in vivo
[9] = Oral bioavailability in male ICR mouse at 20 mg/kg measured up to 24 hrs by LC-MS/MS analysis; format: ADME, organism-based; conditions: in vivo
[10] = target: T1, Histone deacetylase 8 (Homo sapiens, UniProt Q9BY41); test: Inhibition of HDAC8 (unknown origin) using trypsin and LGK(Ac)-AMC as substrates incubated for 1 hr and measured by fluorescence assay
T1 sequence (Q9BY41 whole entry): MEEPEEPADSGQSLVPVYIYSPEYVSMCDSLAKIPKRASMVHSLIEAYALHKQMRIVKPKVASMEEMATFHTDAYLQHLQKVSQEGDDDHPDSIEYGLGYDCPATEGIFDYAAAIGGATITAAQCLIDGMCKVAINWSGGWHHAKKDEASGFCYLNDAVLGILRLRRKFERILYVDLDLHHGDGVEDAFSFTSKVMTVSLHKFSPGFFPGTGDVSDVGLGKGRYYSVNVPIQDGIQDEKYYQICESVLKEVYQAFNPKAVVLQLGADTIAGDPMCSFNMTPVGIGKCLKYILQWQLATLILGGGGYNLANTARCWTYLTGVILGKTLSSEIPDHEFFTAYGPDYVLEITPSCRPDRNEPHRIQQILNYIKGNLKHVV

[11] = Elimination rate constant in male ICR mouse at 20 mg/kg, po measured up to 24 hrs by LC-MS/MS analysis; format: ADME, organism-based; conditions: in vivo
[12] = Cmax in male ICR mouse at 20 mg/kg, ip measured up to 24 hrs by LC-MS/MS analysis; format: ADME, organism-based; design: time < 24 hrs, dose 20 mg/kg, route ip; conditions: in vivo
[13] = target: T2, Adenosine receptor A1 (Homo sapiens, UniProt P30542); test: Displacement of [3H]DPCPX from human A1AR incubated for 60 mins by scintillation counter analysis
T2 sequence (P30542 whole entry): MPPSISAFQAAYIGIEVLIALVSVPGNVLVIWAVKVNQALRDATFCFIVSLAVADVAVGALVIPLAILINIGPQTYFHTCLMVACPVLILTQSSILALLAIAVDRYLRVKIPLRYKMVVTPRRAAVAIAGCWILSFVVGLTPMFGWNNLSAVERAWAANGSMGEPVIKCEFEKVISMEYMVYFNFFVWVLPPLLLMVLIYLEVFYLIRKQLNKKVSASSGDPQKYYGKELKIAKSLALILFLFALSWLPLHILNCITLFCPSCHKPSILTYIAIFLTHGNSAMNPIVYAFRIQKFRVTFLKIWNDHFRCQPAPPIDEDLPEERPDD

[14] = target: T3, Adenosine receptor A2b (Homo sapiens, UniProt P29275); test: Displacement of [3H]DPCPX from human A2BAR incubated for 60 mins by scintillation counter analysis
T3 sequence (P29275 whole entry): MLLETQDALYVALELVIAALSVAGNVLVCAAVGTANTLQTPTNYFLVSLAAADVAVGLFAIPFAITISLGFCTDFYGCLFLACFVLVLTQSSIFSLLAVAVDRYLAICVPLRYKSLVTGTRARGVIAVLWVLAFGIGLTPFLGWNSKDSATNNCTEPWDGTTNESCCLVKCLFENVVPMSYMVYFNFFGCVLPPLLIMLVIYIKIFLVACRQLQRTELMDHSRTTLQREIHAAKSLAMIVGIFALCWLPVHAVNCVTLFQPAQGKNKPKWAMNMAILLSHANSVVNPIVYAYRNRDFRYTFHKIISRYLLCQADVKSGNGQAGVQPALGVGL

[15] = Cmax in male ICR mouse at 20 mg/kg, po measured up to 24 hrs by LC-MS/MS analysis; format: ADME, organism-based; design: time < 24 hrs, dose 20 mg/kg, route po; conditions: in vivo
[16] = test system: MC-38; test: Antitumor activity against mouse MC38 cells xenografted in C57 mouse assessed as tumor growth inhibition at 150 mg/kg, po administered once a day; format: functional; conditions: read-out: TGI
[17] = target: Histone deacetylase 2 (Homo sapiens, UniProt Q92769); test: Inhibition of HDAC2 (unknown origin) using trypsin and LGK(Ac)-AMC as substrates incubated for 1 hr and measured by fluorescence assay
[18] = Cmax in male ICR mouse at 5 mg/kg, iv measured up to 24 hrs by LC-MS/MS analysis; format: ADME, organism-based; design: dose 5 mg/kg, time < 24 hrs, route iv; conditions: in vivo
[19] = test system: MC38; test: Inhibition of HDAC in mouse MC38 cells assessed as increase in H3 acetylation at 0.1 to 5 uM measured by western blot analysis; format: cell-based; conditions: dose 0.1-5 µM
[20] = Mean residence time in male ICR mouse at 20 mg/kg, ip measured up to 24 hrs by LC-MS/MS analysis; format: ADME, organism-based; conditions: in vivo
[21] = test system: MC-38; test: Antitumor activity against mouse MC38 cells xenografted in C57 mouse assessed as tumor growth inhibition at 60 mg/kg, ip administered twice a day; format: functional; conditions: read-out: TGI

Histone deacetylase 2, sequence (Q92769 whole entry): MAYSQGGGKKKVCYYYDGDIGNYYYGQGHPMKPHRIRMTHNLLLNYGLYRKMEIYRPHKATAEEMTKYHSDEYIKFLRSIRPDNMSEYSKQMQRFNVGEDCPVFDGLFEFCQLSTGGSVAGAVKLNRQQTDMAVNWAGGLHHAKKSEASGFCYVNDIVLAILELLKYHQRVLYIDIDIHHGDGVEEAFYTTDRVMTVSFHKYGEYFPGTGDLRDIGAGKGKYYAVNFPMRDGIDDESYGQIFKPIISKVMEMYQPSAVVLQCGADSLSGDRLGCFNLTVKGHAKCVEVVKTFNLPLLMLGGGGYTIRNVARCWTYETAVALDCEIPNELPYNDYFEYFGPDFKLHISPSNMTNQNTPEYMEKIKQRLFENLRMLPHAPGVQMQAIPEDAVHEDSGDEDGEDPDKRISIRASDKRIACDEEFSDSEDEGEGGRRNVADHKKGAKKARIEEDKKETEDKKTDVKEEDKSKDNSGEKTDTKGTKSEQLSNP

half-life [1]: 49.8 min
MRT [3]: 23.4 min
AUCt [7]: 2098 ng·h/mL
Tmax [8]: 20 min
bioavailability [9]: 43%
pIC50 [10]: < 5.00
k el at 24 h [11]: 0.000108 s⁻¹
Cmax [12]: 8410 ng/mL
pKi [13]: 6.30
pKi [14]: < 5.00
Cmax [15]: 3420 ng/mL
pIC50 [17]: 6.62
Cmax [18]: 4700 ng/mL
MRT [20]: 57 min
Structure (SMILES): Nc1nc(-c2ccco2)c2cnn(CCc3ccc(C(=O)Nc4ccccc4N)cc3)c2n1
inhibition in vivo at 30 mg/kg [2]: 68%
inhibition [4]: Active
inhibition in vivo at 90 mg/kg [5]: 44%
GI50 [6]: 290 nM
inhibition in vivo at 150 mg/kg [16]: 26%
inhibition [19]: Active
inhibition in vivo at 60 mg/kg [21]: 85%
